Patent US11793849B2, “Method of Chinese herbal medicine extract used for treating multiple diseases caused by drug resistant bacteria infection” (priority 2016, dated 2023)
≈ marks a conversion by molar mass, not a printed value. Like-named read-outs stand apart in the source and are kept apart here.

Test system: MDRPA
Assay: MIC determination, microdilution broth method;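 note: broth microdilution per NCCLS recommendations, testing Pithecellobium clypearia water or ethanol extracts against multidrug-resistant Pseudomonas aeruginosa, with MIC50 and MIC90 derived statistically from individual MICs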
[1] = 20 MDRPAs, EA = 60% ethanol extract
[2] = 20 MDRPAs, EA = 95% ethanol extract
[3] = MDRPAs P1-P20, single use, EA=P. clypearia 10% ethanol extract
[4] = MDRPAs P1-P20, single use, EA=P. clypearia water extract
[5] = Pseudomonas aeruginosa, read-out: MIC (single use), strain P1, EA=P. clypearia 10% ethanol extract
[6] = Pseudomonas aeruginosa, read-out: MIC (single use), strain P1, EA=P. clypearia water extract
[7] = Pseudomonas aeruginosa, read-out: MIC (single use), strain P2, EA=P. clypearia 10% ethanol extract
[8] = Pseudomonas aeruginosa, read-out: MIC (single use), strain P2, EA=P. clypearia water extract
[9] = Pseudomonas aeruginosa, read-out: MIC (single use), strain P3, EA=P. clypearia 10% ethanol extract
[10] = Pseudomonas aeruginosa, read-out: MIC (single use), strain P3, EA=P. clypearia water extract
[11] = Pseudomonas aeruginosa, read-out: MIC (single use), strain P4, EA=P. clypearia 10% ethanol extract
[12] = Pseudomonas aeruginosa, read-out: MIC (single use), strain P4, EA=P. clypearia water extract
[13] = Pseudomonas aeruginosa, read-out: MIC (single use), strain P5, EA=P. clypearia 10% ethanol extract
[14] = Pseudomonas aeruginosa, read-out: MIC (single use), strain P5, EA=P. clypearia water extract
[15] = Pseudomonas aeruginosa, read-out: MIC (single use), strain P6, EA=P. clypearia 10% ethanol extract
[16] = Pseudomonas aeruginosa, read-out: MIC (single use), strain P6, EA=P. clypearia water extract
[17] = Pseudomonas aeruginosa, read-out: MIC (single use), strain P7, EA=P. clypearia 10% ethanol extract
[18] = Pseudomonas aeruginosa, read-out: MIC (single use), strain P7, EA=P. clypearia water extract
[19] = Pseudomonas aeruginosa, read-out: MIC (single use), strain P8, EA=P. clypearia 10% ethanol extract
[20] = Pseudomonas aeruginosa, read-out: MIC (single use), strain P8, EA=P. clypearia water extract
[21] = Pseudomonas aeruginosa, read-out: MIC (single use), strain P9, EA=P. clypearia 10% ethanol extract
[22] = Pseudomonas aeruginosa, read-out: MIC (single use), strain P9, EA=P. clypearia water extract
[23] = Pseudomonas aeruginosa, read-out: MIC (single use), strain P10, EA=P. clypearia 10% ethanol extract
[24] = Pseudomonas aeruginosa, read-out: MIC (single use), strain P10, EA=P. clypearia water extract
[25] = Pseudomonas aeruginosa, read-out: MIC (single use), strain P11, EA=P. clypearia 10% ethanol extract
[26] = Pseudomonas aeruginosa, read-out: MIC (single use), strain P11, EA=P. clypearia water extract
[27] = Pseudomonas aeruginosa, read-out: MIC (single use), strain P12, EA=P. clypearia 10% ethanol extract
[28] = Pseudomonas aeruginosa, read-out: MIC (single use), strain P12, EA=P. clypearia water extract
[29] = Pseudomonas aeruginosa, read-out: MIC (single use), strain P13, EA=P. clypearia 10% ethanol extract
[30] = Pseudomonas aeruginosa, read-out: MIC (single use), strain P13, EA=P. clypearia water extract
[31] = Pseudomonas aeruginosa, read-out: MIC (single use), strain P14, EA=P. clypearia 10% ethanol extract
[32] = Pseudomonas aeruginosa, read-out: MIC (single use), strain P14, EA=P. clypearia water extract
[33] = Pseudomonas aeruginosa, read-out: MIC (single use), strain P15, EA=P. clypearia 10% ethanol extract
[34] = Pseudomonas aeruginosa, read-out: MIC (single use), strain P15, EA=P. clypearia water extract
[35] = Pseudomonas aeruginosa, read-out: MIC (single use), strain P16, EA=P. clypearia 10% ethanol extract
[36] = Pseudomonas aeruginosa, read-out: MIC (single use), strain P16, EA=P. clypearia water extract
[37] = Pseudomonas aeruginosa, read-out: MIC (single use), strain P17, EA=P. clypearia 10% ethanol extract
[38] = Pseudomonas aeruginosa, read-out: MIC (single use), strain P17, EA=P. clypearia water extract
[39] = Pseudomonas aeruginosa, read-out: MIC (single use), strain P18, EA=P. clypearia 10% ethanol extract
[40] = Pseudomonas aeruginosa, read-out: MIC (single use), strain P18, EA=P. clypearia water extract
[41] = Pseudomonas aeruginosa, read-out: MIC (single use), strain P19, EA=P. clypearia 10% ethanol extract
[42] = Pseudomonas aeruginosa, read-out: MIC (single use), strain P19, EA=P. clypearia water extract
[43] = Pseudomonas aeruginosa, read-out: MIC (single use), strain P20, EA=P. clypearia 10% ethanol extract
[44] = Pseudomonas aeruginosa, read-out: MIC (single use), strain P20, EA=P. clypearia water extract
[45] = single use, 20 MDRPAs, section of the 10% ethanol extract
[46] = single use, 20 MDRPAs, section of the 60% ethanol extract
[47] = single use, 20 MDRPAs, section of the 95% ethanol extract

Experimental: Determination methods of a Minimal Inhibitory Concentration (MIC) and a Minimum Bactericidal Concentration (MBC) of a test product: the MIC and the MBC of the Pithecellobium clypearia Benth water or ethanol extract to the MDRAB are determined by a microdilution broth method. And it is operated by referring to the microdilution broth method recommended by National Committee for Clinical Laboratory Standards (NCCLS).
By determining the MIC and the MBC of the drug and making statistics of the data to obtain MIC50, MIC90, MBC50 and MBC90, the effect of the MDRA resistance of the drug is evaluated.
Test method: the MDRPA (serial No.: P1-P20) strains are tested and are evaluated with reference to the method in the first embodiment.

C[C@H]1COc2c(N3CCN(C)CC3)c(F)cc3c(=O)c(C(=O)O)cn1c23 [LVX, Levofloxacin] was tested, and the MIC50 [1] was 4 µg/mL (≈ 11.1 µM), the MIC90 [1] was 32 µg/mL (≈ 88.6 µM) and the “MIC Range” value [1] was 0.5 to 128 µg/mL. The MIC50 [2] was 4 µg/mL (≈ 11.1 µM), the MIC90 [2] was 32 µg/mL (≈ 88.6 µM) and the “MIC Range” value [2] was 0.5 to 128 µg/mL. The MIC50 [3] was 4 µg/mL (≈ 11.1 µM), the MIC90 [3] was 32 µg/mL (≈ 88.6 µM) and the “MIC Range” value [3] was 0.5 to 128 µg/mL. For the same molecule, the MIC50 [4] was 4 µg/mL (≈ 11.1 µM), the MIC90 [4] was 32 µg/mL (≈ 88.6 µM) and the “MIC Range” value [4] was 0.5 to 128 µg/mL. It also gave an MIC50 (Pseudomonas aeruginosa) of 4 µg/mL (≈ 11.1 µM), an MIC90 (Pseudomonas aeruginosa) of 32 µg/mL (≈ 88.6 µM) and an MIC [5] of 32 µg/mL (≈ 88.6 µM). It also gave an MIC [6] of 32 µg/mL (≈ 88.6 µM), an MIC [7] of 4 µg/mL (≈ 11.1 µM) and an MIC [8] of 4 µg/mL (≈ 11.1 µM). For the same molecule, the MIC [9] was 8 µg/mL (≈ 22.1 µM), the MIC [10] was 8 µg/mL (≈ 22.1 µM) and the MIC [11] was 8 µg/mL (≈ 22.1 µM). The MIC [12] was 8 µg/mL (≈ 22.1 µM), the MIC [13] was 1 µg/mL (≈ 2.77 µM) and the MIC [14] was 1 µg/mL (≈ 2.77 µM). The MIC [15] was 0.5 µg/mL (≈ 1.38 µM), the MIC [16] was 0.5 µg/mL (≈ 1.38 µM) and the MIC [17] was 32 µg/mL (≈ 88.6 µM). For the same molecule, the MIC [18] was 32 µg/mL (≈ 88.6 µM), the MIC [19] was 1 µg/mL (≈ 2.77 µM) and the MIC [20] was 1 µg/mL (≈ 2.77 µM). The MIC [21] was 4 µg/mL (≈ 11.1 µM), the MIC [22] was 4 µg/mL (≈ 11.1 µM) and the MIC [23] was 128 µg/mL (≈ 354 µM). The MIC [24] was 128 µg/mL (≈ 354 µM), the MIC [25] was 2 µg/mL (≈ 5.53 µM) and the MIC [26] was 2 µg/mL (≈ 5.53 µM). The MIC [27] was 1 µg/mL (≈ 2.77 µM), the MIC [28] was 1 µg/mL (≈ 2.77 µM) and the MIC [29] was 2 µg/mL (≈ 5.53 µM). It also gave an MIC [30] of 2 µg/mL (≈ 5.53 µM), an MIC [31] of 32 µg/mL (≈ 88.6 µM) and an MIC [32] of 32 µg/mL (≈ 88.6 µM). For the same molecule, the MIC [33] was 2 µg/mL (≈ 5.53 µM), the MIC [34] was 2 µg/mL (≈ 5.53 µM) and the MIC [35] was 32 µg/mL (≈ 88.6 µM). It also gave an MIC [36] of 32 µg/mL (≈ 88.6 µM), an MIC [37] of 4 µg/mL (≈ 11.1 µM) and an MIC [38] of 4 µg/mL (≈ 11.1 µM). The MIC [39] was 4 µg/mL (≈ 11.1 µM), the MIC [40] was 4 µg/mL (≈ 11.1 µM) and the MIC [41] was 16 µg/mL (≈ 44.3 µM). The MIC [42] was 16 µg/mL (≈ 44.3 µM), the MIC [43] was 4 µg/mL (≈ 11.1 µM) and the MIC [44] was 4 µg/mL (≈ 11.1 µM). For the same molecule, the MIC50 [45] was 4 µg/mL (≈ 11.1 µM), the MIC90 [45] was 32 µg/mL (≈ 88.6 µM) and the MIC50 [46] was 4 µg/mL (≈ 11.1 µM). For the same molecule, the MIC90 [46] was 32 µg/mL (≈ 88.6 µM), the MIC50 [47] was 4 µg/mL (≈ 11.1 µM) and the MIC90 [47] was 32 µg/mL (≈ 88.6 µM).

With C[C@@H](O)[C@H]1C(=O)N2C(C(=O)O)=C(SCCN=CN)C[C@H]12 [IMP, imipenem] the MIC50 [1] was 32 µg/mL (≈ 107 µM), the MIC90 [1] was 64 µg/mL (≈ 214 µM) and the “MIC Range” value [1] was 4 to 64 µg/mL. The MIC50 [2] was 32 µg/mL (≈ 107 µM), the MIC90 [2] was 64 µg/mL (≈ 214 µM) and the “MIC Range” value [2] was 4 to 64 µg/mL. The MIC50 [3] was 32 µg/mL (≈ 107 µM), the MIC90 [3] was 64 µg/mL (≈ 214 µM) and the “MIC Range” value [3] was 4 to 64 µg/mL. For the same molecule, the MIC50 [4] was 32 µg/mL (≈ 107 µM), the MIC90 [4] was 64 µg/mL (≈ 214 µM) and the “MIC Range” value [4] was 4 to 64 µg/mL. It also gave an MIC50 (Pseudomonas aeruginosa) of 32 µg/mL (≈ 107 µM), an MIC90 (Pseudomonas aeruginosa) of 64 µg/mL (≈ 214 µM) and an MIC [5] of 32 µg/mL (≈ 107 µM). The MIC [6] was 32 µg/mL (≈ 107 µM), the MIC [7] was 64 µg/mL (≈ 214 µM) and the MIC [8] was 64 µg/mL (≈ 214 µM). For the same molecule, the MIC [9] was 64 µg/mL (≈ 214 µM), the MIC [10] was 64 µg/mL (≈ 214 µM) and the MIC [11] was 32 µg/mL (≈ 107 µM). For the same molecule, the MIC [12] was 32 µg/mL (≈ 107 µM), the MIC [13] was 64 µg/mL (≈ 214 µM) and the MIC [14] was 64 µg/mL (≈ 214 µM). The MIC [15] was 32 µg/mL (≈ 107 µM), the MIC [16] was 32 µg/mL (≈ 107 µM) and the MIC [17] was 32 µg/mL (≈ 107 µM). It also gave an MIC [18] of 32 µg/mL (≈ 107 µM), an MIC [19] of 64 µg/mL (≈ 214 µM) and an MIC [20] of 64 µg/mL (≈ 214 µM). The MIC [21] was 32 µg/mL (≈ 107 µM), the MIC [22] was 32 µg/mL (≈ 107 µM) and the MIC [23] was 64 µg/mL (≈ 214 µM). The MIC [24] was 64 µg/mL (≈ 214 µM), the MIC [25] was 8 µg/mL (≈ 26.7 µM) and the MIC [26] was 8 µg/mL (≈ 26.7 µM). It also gave an MIC [27] of 32 µg/mL (≈ 107 µM), an MIC [28] of 32 µg/mL (≈ 107 µM) and an MIC [29] of 8 µg/mL (≈ 26.7 µM). It also gave an MIC [30] of 8 µg/mL (≈ 26.7 µM), an MIC [31] of 32 µg/mL (≈ 107 µM) and an MIC [32] of 32 µg/mL (≈ 107 µM). The MIC [33] was 32 µg/mL (≈ 107 µM), the MIC [34] was 32 µg/mL (≈ 107 µM) and the MIC [35] was 16 µg/mL (≈ 53.4 µM). It also gave an MIC [36] of 16 µg/mL (≈ 53.4 µM), an MIC [37] of 16 µg/mL (≈ 53.4 µM) and an MIC [38] of 16 µg/mL (≈ 53.4 µM). For the same molecule, the MIC [39] was 32 µg/mL (≈ 107 µM), the MIC [40] was 32 µg/mL (≈ 107 µM) and the MIC [41] was 64 µg/mL (≈ 214 µM). For the same molecule, the MIC [42] was 64 µg/mL (≈ 214 µM), the MIC [43] was 4 µg/mL (≈ 13.4 µM) and the MIC [44] was 4 µg/mL (≈ 13.4 µM). For the same molecule, the MIC50 [45] was 32 µg/mL (≈ 107 µM), the MIC90 [45] was 64 µg/mL (≈ 214 µM) and the MIC50 [46] was 32 µg/mL (≈ 107 µM). It also gave an MIC90 [46] of 64 µg/mL (≈ 214 µM), an MIC50 [47] of 32 µg/mL (≈ 107 µM) and an MIC90 [47] of 64 µg/mL (≈ 214 µM).
